Data on 29 compounds can be found in paper PMC8320704 (Journal of medicinal chemistry, 2015).

The target of series [1] is T1, HIV-1 IN (3′-P) (Human immunodeficiency virus type 1 group M subtype B, UniProt P04585). Briefly: HIV-1 IN gel-based assay, 3′-processing. The series is classed as biochemical.
For series [2], the target named is T2, HIV-1 IN (ST) (Human immunodeficiency virus type 1 group M subtype B, UniProt P04585). In words: HIV-1 IN gel-based assay, strand transfer. The series is classed as biochemical.
For the next series, the target named is HIV-1 RT RNase H (Human immunodeficiency virus type 1 group M subtype B, UniProt P04585). Briefly: HIV-1 RT RNase H inhibition. The class given is biochemical.
In series [3] the target is T1, HIV-1 IN (3′-P). As to conditions: read-out: 3′-P IC50, previously reported compounds; cited from earlier work.
In series [4] the target is T2, HIV-1 IN (ST). As to conditions: read-out: ST IC50, previously reported compound; cited from earlier work.

“And” between values parts separate entries of the source, which are not always exact repeats. Equal values may be shown once. Read-outs that look alike come from different tables or passages of the source. Bounds are passed on as bounds.

As for `CCOC(=O)/C(O)=C/C(=O)c1cn(Cc2ccccc2)c2ccccc2c1=O` [10a, 4-[1-Phenylmethyl-4(1H)-quinolinon-3-yl]-2-hydroxy-4-oxo-2-butenoic Acid Ethyl Ester], in the series with HIV-1(IIIB) (Table 1), the “SI = CC50/EC50” value is given as above 50. Further, the IC50 at HIV-1 IN (3′-P) [1] is above 1000 µM.
Turning to `CCOC(=O)/C(O)=C/C(=O)c1cn(Cc2ccccc2OC)c2ccccc2c1=O` [10c, 4-[1-(2-Methoxyphenyl)methyl-4(1H)-quinolinon-3-yl]-2-hydroxy-4-oxo-2-butenoic Acid Ethyl Ester], the “SI = CC50/EC50” value in the series on HIV-1(IIIB) (Table 1) is given as above 19.2. Further, the IC50 against HIV-1 IN (3′-P) [1] was above 333 µM.
For `CCOC(=O)/C(O)=C/C(=O)c1cn(Cc2cccc(F)c2)c2ccccc2c1=O` [10d, 4-[1-(3-Fluorophenyl)methyl-4(1H)-quinolinon-3-yl]-2-hydroxy-4-oxo-2-butenoic Acid Ethyl Ester] the same measures were above 29.4 and above 12.3 µM.
For `CCOC(=O)/C(O)=C/C(=O)c1cn(Cc2ccc(Cl)cc2)c2ccccc2c1=O` [10f, 4-[1-(4-Chlorophenyl)methyl-4(1H)-quinolinon-3-yl]-2-hydroxy-4-oxo-2-butenoic Acid Ethyl Ester], the IC50 against HIV-1 IN (ST) [2] and at HIV-1 IN (3′-P) [1] was above 37 µM in each case.
On to `CCOC(=O)/C(O)=C/C(=O)c1cn(Cc2ccc(O)cc2)c2ccccc2c1=O` [10g, 4-[1-(4-Hydroxyphenyl)methyl-4(1H)-quinolinon-3-yl]-2-hydroxy-4-oxo-2-butenoic Acid Ethyl Ester], for which, in the series with HIV-1(IIIB) (Table 1), the “SI = CC50/EC50” value is recorded as above 1.6. At HIV-1 IN (3′-P) [1], this compound returned an IC50 above 333 µM.
`CCOC(=O)/C(O)=C/C(=O)c1cn(Cc2ccc(OC)cc2)c2ccccc2c1=O` [10h, 4-[1-(4-Methoxyphenyl)methyl-4(1H)-quinolinon-3-yl]-2-hydroxy-4-oxo-2-butenoic Acid Ethyl Ester]: the IC50 on HIV-1 IN (ST) [2] and at HIV-1 IN (3′-P) [1] was above 37 µM in each case.
As to `CCOC(=O)/C(O)=C/C(=O)c1cn(Cc2ccc([N+](=O)[O-])cc2)c2ccccc2c1=O` [10i, 4-[1-(4-Nitrophenyl)methyl-4(1H)-quinolinon-3-yl]-2-hydroxy-4-oxo-2-butenoic Acid Ethyl Ester], the IC50 against HIV-1 IN (ST) [2] and on HIV-1 IN (3′-P) [1] was above 37 µM throughout.
Turning to `CCOC(=O)/C(O)=C/C(=O)c1cn(Cc2c(F)cccc2F)c2ccccc2c1=O` [10l, 4-[1-(2,6-Difluorophenyl)methyl-4(1H)-quinolinon-3-yl]-2-hydroxy-4-oxo-2-butenoic Acid Ethyl Ester], in the series on HIV-1(IIIB), the “selectivity index (SI)” value was above 250. Also, the “SI = CC50/EC50” value with HIV-1(IIIB) (Table 1) is above 250. On HIV-1 IN (3′-P) [1], this compound returned an IC50 above 12.3 µM.
Turning to `CCOC(=O)/C(O)=C/C(=O)c1cn(Cc2ccc(Cl)cc2Cl)c2ccccc2c1=O` [10o, 4-[1-(2,4-Dichlorophenyl)methyl-4(1H)-quinolinon-3-yl]-2-hydroxy-4-oxo-2-butenoic Acid Ethyl Ester], the IC50 on HIV-1 IN (ST) [2] was above 111 µM; against HIV-1 RT RNase H (RNase H IC50, Table 1), above 50 µM.
As to `CCOC(=O)/C(O)=C/C(=O)c1cn(Cc2c(Cl)cccc2Cl)c2ccccc2c1=O` [10p, 4-[1-(2,6-Dichlorophenyl)methyl-4(1H)-quinolinon-3-yl]-2-hydroxy-4-oxo-2-butenoic Acid Ethyl Ester], the “SI = CC50/EC50” value in the series on HIV-1(IIIB) (Table 1) was above 1.7. Moreover, the IC50 at HIV-1 RT RNase H (RNase H IC50, Table 1) was above 50 µM.
Regarding `CCOC(=O)/C(O)=C/C(=O)c1cn(Cc2ccc(C)cc2C)c2ccccc2c1=O` [10q, 4-[1-(2,4-Dimethylphenyl)methyl-4(1H)-quinolinon-3-yl]-2-hydroxy-4-oxo-2-butenoic Acid Ethyl Ester], the IC50 at HIV-1 IN (ST) [2] was above 111 µM; at HIV-1 RT RNase H (RNase H IC50, Table 1), above 50 µM.
As for `CCOC(=O)/C(O)=C/C(=O)c1cn(CCCCc2ccccc2)c2ccccc2c1=O` [10x, 2-Hydroxy-4-oxo-4-(4-oxo-1-(4-phenylbutyl)-1,4-dihydroquinolin-3-yl)but-2-enoic Acid Ethyl Ester], the IC50 against HIV-1 IN (3′-P) [1] is above 333 µM.
Regarding `CCOC(=O)/C(O)=C/C(=O)c1cn(Cc2ccc3ccccc3c2)c2ccccc2c1=O` [10y, 2-Hydroxy-4-(1-(naphthalen-2-ylmethyl)-4-oxo-1,4-dihydroquinolin-3-yl)-4-oxobut-2-enoic Acid Ethyl Ester], the IC50 on HIV-1 IN (3′-P) [1] is above 333 µM.
The same measure, in the same setting: for `CCOC(=O)/C(O)=C/C(=O)c1cn(Cc2ccncc2)c2ccccc2c1=O` [10z, 2-Hydroxy-4-oxo-4-(4-oxo-1-(pyridin-4-ylmethyl)-1,4-dihydroquinolin-3-yl)but-2-enoic Acid Ethyl Ester] the value was above 333 µM.
With `O=C(O)/C(O)=C/C(=O)c1cn(Cc2ccccc2F)c2ccccc2c1=O` [11b, 4-[1-(2-Fluorophenyl)methyl-4(1H)-quinolinon-3-yl]-2-hydroxy-4-oxo-2-butenoic Acid], the “SI = CC50/EC50” value in the series on HIV-1(IIIB) (Table 1) was above 19.2. For the same compound, the IC50 against HIV-1 RT RNase H (RNase H IC50, Table 1) is above 50 µM.
Take `COc1ccccc1Cn1cc(C(=O)/C=C(\O)C(=O)O)c(=O)c2ccccc21` [11c, 4-[1-(2-Methoxyphenyl)methyl-4(1H)-quinolinon-3-yl]-2-hydroxy-4-oxo-2-butenoic Acid]: in the series on HIV-1(IIIB) (Table 1), the “SI = CC50/EC50” value is listed as above 5.4. At HIV-1 IN (3′-P) [1], this compound displayed an IC50 above 4.1 µM.
Take `COc1cccc(Cn2cc(C(=O)/C=C(\O)C(=O)O)c(=O)c3ccccc32)c1` [11e, 4-[1-(3-Methoxyphenyl)methyl-4(1H)-quinolinon-3-yl]-2-hydroxy-4-oxo-2-butenoic Acid]: the IC50 against HIV-1 IN (3′-P) [1] was above 4.1 µM.
As to `O=C(O)/C(O)=C/C(=O)c1cn(Cc2ccc(Cl)cc2)c2ccccc2c1=O` [11f, 4-[1-(4-Chlorophenyl)methyl-4(1H)-quinolinon-3-yl]-2-hydroxy-4-oxo-2-butenoic Acid], the “selectivity index (SI)” value with HIV-1(IIIB) is above 57.5. In addition, in the series with HIV-1(IIIB) (Table 1), the “SI = CC50/EC50” value was above 57.5. On HIV-1 RT RNase H (RNase H IC50, Table 1), this compound displayed an IC50 above 50 µM.
Take `O=C(O)/C(O)=C/C(=O)c1cn(Cc2ccc(O)cc2)c2ccccc2c1=O` [11g, 4-[1-(4-Hydroxyphenyl)methyl-4(1H)-quinolinon-3-yl]-2-hydroxy-4-oxo-2-butenoic Acid]: the half-inhibitory concentration (IC50) is above 37 µM against HIV-1 IN (3′-P) [1] and around 10 µM at HIV-1 RT RNase H (RNase H IC50, text).
Turning to `COc1ccc(Cn2cc(C(=O)/C=C(\O)C(=O)O)c(=O)c3ccccc32)cc1` [11h, 4-[1-(4-Methoxyphenyl)methyl-4(1H)-quinolinon-3-yl]-2-hydroxy-4-oxo-2-butenoic Acid], the IC50 against HIV-1 RT RNase H (RNase H IC50, Table 1) was above 50 µM.
Same read-out and setting: for `O=C(O)/C(O)=C/C(=O)c1cn(Cc2cc(F)ccc2F)c2ccccc2c1=O` [11k, 4-[1-(2,5-Difluorophenyl)methyl-4(1H)-quinolinon-3-yl]-2-hydroxy-4-oxo-2-butenoic Acid] the value was above 50 µM.
For `O=C(O)/C(O)=C/C(=O)c1cn(Cc2c(F)cccc2F)c2ccccc2c1=O` [11l, 4-[1-(2,6-Difluorophenyl)methyl-4(1H)-quinolinon-3-yl]-2-hydroxy-4-oxo-2-butenoic Acid], the “SI = CC50/EC50” value with HIV-1(IIIB) (Table 1) was above 6.2. Moreover, the IC50 against HIV-1 RT RNase H (RNase H IC50, text) is around 10 µM.
On to `O=C(O)/C(O)=C/C(=O)c1cn(Cc2ccc(F)c(F)c2)c2ccccc2c1=O` [11m, 4-[1-(3,4-Difluorophenyl)methyl-4(1H)-quinolinon-3-yl]-2-hydroxy-4-oxo-2-butenoic Acid], for which, in the series with HIV-1(IIIB) (Table 1), the “SI = CC50/EC50” value is reported as above 3.1. Besides, the IC50 on HIV-1 RT RNase H (RNase H IC50, Table 1) was above 50 µM.
Compound `O=C(O)/C(O)=C/C(=O)c1cn(Cc2cc(F)cc(F)c2)c2ccccc2c1=O` [11n, 4-[1-(3,5-Difluorophenyl)methyl-4(1H)-quinolinon-3-yl]-2-hydroxy-4-oxo-2-butenoic Acid] gave an IC50 at HIV-1 RT RNase H (RNase H IC50, Table 1) above 50 µM.
`O=C(O)/C(O)=C/C(=O)c1cn(Cc2ccccc2F)c2c(Cl)cccc2c1=O` [11v, 8-Chloro-4-[1-(2-fluorophenyl)methyl-4(1H)-quinolinon-3-yl]-2-hydroxy-4-oxo-2-butenoic Acid] came in with an IC50 against HIV-1 RT RNase H (RNase H IC50, Table 1) above 50 µM.
`O=C(O)/C(O)=C/C(=O)c1cn(CCCCc2ccccc2)c2ccccc2c1=O` [11x, 2-Hydroxy-4-oxo-4-(4-oxo-1-(4-phenylbutyl)-1,4-dihydroquinolin-3-yl)but-2-enoic Acid]: the results for the IC50 on HIV-1 IN (ST) [2] and at HIV-1 IN (3′-P) [1] were below 0.45 µM and above 333 µM, respectively.
With `O=C(O)/C(O)=C/C(=O)c1cn(Cc2ccc3ccccc3c2)c2ccccc2c1=O` [11y, 2-Hydroxy-4-(1-(naphthalen-2-ylmethyl)-4-oxo-1,4-dihydroquinolin-3-yl)-4-oxobut-2-enoic Acid], in the series on HIV-1(IIIB) (Table 2), the “SI = CC50/EC50” value is above 10.4. Moreover, on HIV-1 IN (ST) [2], the IC50 was below 0.45 µM.
`O=C(O)/C(O)=C/C(=O)c1cn(Cc2ccncc2)c2ccccc2c1=O` [11z, 2-Hydroxy-4-oxo-4-(4-oxo-1-(pyridin-4-ylmethyl)-1,4-dihydroquinolin-3-yl)but-2-enoic Acid] gave an IC50 against HIV-1 IN (3′-P) [1] above 1000 µM.
For `O=C(O)/C(O)=C/C(=O)c1cn(Cc2ccc(F)cc2)c2cc(Cl)c(Cl)cc2c1=O` [compound 8], the IC50 is above 50 µM at HIV-1 IN (3′-P) [3]; 0.033 µM and 0.04 µM on HIV-1 IN (ST) [4]; 42 µM against HIV-1 RT RNase H (RNase H IC50, text).
